Results reported in patent US20250066323A1, “INHIBITORS OF HUMAN RESPIRATORY SYNCYTIAL VIRUS AND METAPNEUMOVIRUS” (priority 2023, published 2025).
pEC50: −log10 of the molar value.

Assays:
hMPV-GFP = hMPV-GFP viral replication assay; format: cell-based, human metapneumovirus; settings: read-out: hMPV EC50; VERO cells, hMPV-GFP MOI=1.25, 48 hrs, GFP-expressing cells counted
Procedure: GFP expressing rgHMPV #3 p3 was generated in Dr. Buchholz's lab (Biacchesi S. et al., J Virol. 2007 June; 81(11): 6057-6067.) and propagated in VERO cells (kidney tissue derived from a normal, adult African green monkey. ATCC Cat #CCL-81) with infection Multiplicity of Infection (MOI) of 0.1. Virus was harvested 4 days after infection by collecting all culture material and freeze-thaw the viral culture in liquid nitrogen twice. To generating virus working stocks, thaw frozen samples in 37° C. water bath then centrifuge at 218 g for 15 min at 4° C. Add 1/10 of 10×SPG (Biological Industries 06-3061-01-5A), mix, aliquot supernatant, and quick-freeze in liquid nitrogen then transfer to −80° C. freezer for storage. Virus titer was determined by performing titration test in 96-well plates and calculate approximate virus titer using GFP event/well data.
Compound plates were prepared by dispensing compounds dissolved in DMSO into wells of 384 well coming 3985 polystyrene flat clear bottom optical imaging microplates (202.5 nL/well) using an ECHO acoustic dispenser. Each compound was tested in a 10-point serial 3-fold dilution (typical final concentrations: 40,300 nM-2 nM). […] Continuous culture of VERO cells were maintained in complete culture media (OptiMEM supplemented with 2 mM GlutaMAX™ and 100 U/ml Penicillin-Streptomycin). To set up the assay, trypsinize VERO cells with 0.25% Trypsin-EDTA until cells dislodge, then re-suspend cells with 1 mL FBS. Spin down cells at 300 g for 5 min and wash cells twice in culture media, then count cells using default parameters on ViCell. Cells were then diluted to 100,000 cells/ml (5,000 cells/50 μl) in complete culture media+TrypLE Select (80 μl/ml). Add hMPV-GFP virus to cells at 125,000 pfu/ml (MOI=1.25). Mix by gentle inversion. 10 μl/well of 100% DMSO was dispensed to CellTiter-Glo (CTG) assay Max_E controls wells. Dispense cells at 50 μl/well using Bravo and 50 μl filtered tips into compound plates. Cover plates with MicroClime lids loaded with 7.5 ml of assay media to minimize evaporation. Lightly shake plate for 10 minutes at room temperature then incubate at 37 degrees C. and 5% CO2 for 48 hrs. Following incubation, distinct, GFP-expressing cells are counted using an Acumen imaging system with appropriate settings. A same-well CTG assay is performed by adding 10 μl/well reconstituted CellTiter-Glo reagent (Promega G7573) and reading plates on PerkinElmer Envision according to manufacturer's instructions. Raw data were loaded and analyzed in ActivityBase. Antiviral IC50 and cytotoxicity CC50 values were determined using a 4 parameter logistic fit based on the Levenberg-Marquardt algorithm. Model: 205-4 Parameter Logistic.

RSV-A2-GFP = RSV-A2-GFP viral replication assay; format: cell-based, Human Respiratory Syncytial Virus; settings: read-out: RSV EC50; Calu-1 cells, RSV-A2-GFP MOI=1.2, 96 hrs, GFP-expressing cells counted
Outline: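 Calu-1 cells in DMEM/2% FBS infected with RSV-A2 expressing GFP between P and M genes (24,000 pfu/ml, MOI=1.2), 10-point 3-fold dilutions (typical final 403 nM-0.02 nM or 40.3 nM-0.002 nM). After 96 h at 37°C, GFP-positive cells imaged; same-well CellTiter-Glo for cytotoxicity. IC50/CC50 by 4-parameter logistic fit.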

SMILES: Cn1nc(-c2cscn2)cc1C(=O)NCC(C)(O)c1cc2c(c(-c3ccc(F)cc3)n1)OCC2(C)N (single isomer, unassigned) [Example 28-D]
- pEC50 (hMPV-GFP): < 7.00
- pEC50 (RSV-A2-GFP): 7.00 to 8.00
